Reference: the supplement of paper PMC13380429

Columns and labels:
Conditions in all cases: 72 h
[1] = test system: Calu-3; experiment: cell viability relative to DMSO; higher = less toxic
[2] = test system: HepG2; experiment: as above
[3] = test system: U2OS; experiment: as above
[4] = test system: Vero E6; experiment: as above
[5] = test system: Calu-3; experiment: relative viability EC50 (midpoint between 100% and the lowest measured viability); higher = less toxic
[6] = test system: HepG2; experiment: as above
[7] = test system: U2OS; experiment: as above
[8] = test system: Vero E6; experiment: as above
[9] = test system: Calu-3; experiment: drug sensitivity score (DSS) for viability; higher = more toxic; extreme values may be limits of the assay
[10] = test system: HepG2; experiment: as above
[11] = test system: U2OS; experiment: as above
[12] = test system: Vero E6; experiment: as above
[13] = test system: Caco-2; experiment: cell viability relative to DMSO; higher = less toxic
[14] = test system: Caco-2; experiment: drug sensitivity score (DSS) for viability; higher = more toxic; extreme values may be limits of the assay
[15] = test system: Caco-2; experiment: relative viability EC50 (midpoint between 100% and the lowest measured viability); higher = less toxic

Row | SMILES | cell viability ([1]; 1 nM) | cell viability ([1]; 10 nM) | cell viability ([1]; 100 nM) | cell viability ([1]; 1000 nM) | cell viability ([1]; 10000 nM) | cell viability ([2]; 1 nM) | cell viability ([2]; 10 nM) | cell viability ([2]; 100 nM) | cell viability ([2]; 1000 nM) | cell viability ([2]; 10000 nM) | cell viability ([3]; 1 nM) | cell viability ([3]; 10 nM) | cell viability ([3]; 100 nM) | cell viability ([3]; 1000 nM) | cell viability ([3]; 10000 nM) | cell viability ([4]; 1 nM) | cell viability ([4]; 10 nM) | cell viability ([4]; 100 nM) | cell viability ([4]; 1000 nM) | cell viability ([4]; 10000 nM) | relative viability EC50 [5] | relative viability EC50 [6] | relative viability EC50 [7] | relative viability EC50 [8] | drug sensitivity score [9] | drug sensitivity score [10] | drug sensitivity score [11] | drug sensitivity score [12] | cell viability ([13]; 1 nM) | cell viability ([13]; 10 nM) | cell viability ([13]; 100 nM) | cell viability ([13]; 1000 nM) | cell viability ([13]; 10000 nM) | drug sensitivity score [14] | relative viability EC50 [15]
1 | CCC(=O)O[C@]1(C(=O)CCl)[C@@H](C)C[C@H]2[C@@H]3CCC4=CC(=O)C=C[C@]4(C)[C@@]3(F)[C@@H](O)C[C@@]21C [clobetasol-propionate] | 91.5% | 96% | 82.2% | 94% | 89.7% | 107% | 105% | 94.5% | 99.4% | 77.8% | 95.7% | 95.7% | 93.1% | 90.7% | 91.2% | 99.6% | 96.5% | 107% | 93.4% | 95.2% | > 10 µM | > 10 µM | > 10 µM | > 10 µM | 0 | 0.8 | 0 | 0 |  |  |  |  |  |  | 
2 | CC(=O)O[C@]1(C(C)=O)CC[C@H]2[C@@H]3CCC4=CC(=O)CCC4=C3[C@@H](c3ccc(N(C)C)cc3)C[C@@]21C [Ulipristal acetate] | 105% | 106% | 97.1% | 104% | 110% | 110% | 110% | 103% | 97.9% | 104% | 103% | 103% | 99.1% | 99.6% | 94.9% | 104% | 98.2% | 99.3% | 97% | 98.3% | > 10 µM | > 10 µM | > 10 µM | > 10 µM | 0 | 0 | 0 | 0 | 94.7% | 94.7% | 98.3% | 97.9% | 67.8% | 1.8 | 
3 | O/N=C/c1cc[n+](COC[n+]2ccc(/C=N/O)cc2)cc1 [obidoxime] | 102% | 91.8% | 100% | 84.1% | 106% |  |  |  |  |  | 97.2% | 101% | 94.9% | 95.2% | 102% |  |  |  |  |  | > 10 µM |  | > 10 µM |  | 0 |  | 0 |  | 94.5% | 99.4% | 94.4% | 94.7% | 94.6% | 0 | > 10 µM
4 | CN1[C@H]2C[C@H](OC(=O)[C@H](CO)c3ccccc3)C[C@@H]1[C@@H](O)C2 [anisodamine] | 101% | 103% | 105% | 91.8% | 108% | 104% | 111% | 79.8% | 104% | 102% | 98% | 105% | 98.8% | 101% | 97.6% |  |  |  |  |  | > 10 µM | > 10 µM | > 10 µM |  | 0 | 0 | 0 |  | 107% | 108% | 101% | 115% | 99.2% | 0 | > 10 µM
5 | CO/N=C1\C[C@]2(C[C@@H]3C[C@@H](C/C=C(\C)C[C@@H](C)/C=C/C=C4\CO[C@@H]5[C@H](O)C(C)=C[C@@H](C(=O)O3)[C@]45O)O2)O[C@H](/C(C)=C/C(C)C)[C@H]1C [moxidectin] | 90.7% | 97.3% | 94.2% | 103% | 89.8% | 101% | 106% | 102% | 105% | 96.7% | 103% | 92.1% | 93.5% | 94.6% | 94.7% | 96.4% | 96.9% | 88.7% | 96.4% | 101% | > 10 µM | > 10 µM | > 10 µM | > 10 µM | 0 | 0 | 0 | 0 | 95.3% | 94% | 102% | 88.2% | 62.1% | 3.6 | 
6 | CC(C)(NS(=O)(=O)c1ccc(Oc2ccc(F)cc2)cc1)C(=O)NO | 106% | 96.3% | 98.9% | 97.9% | 94.3% | 110% | 111% | 98.3% | 110% | 80.7% |  |  |  |  |  |  |  |  |  |  | > 10 µM | > 10 µM |  |  | 0 | 0.3 |  |  |  |  |  |  |  |  | 
7 | COc1ccc(S(=O)(=O)N2CCCN(S(=O)(=O)c3ccc(OC)c(OC)c3)CC2)cc1OC | 89.1% | 84.7% | 102% | 94.4% | 92.1% | 99.3% | 100% | 79.4% | 98.7% | 110% | 98.6% | 96.1% | 99.3% | 100% | 97% |  |  |  |  |  | > 10 µM | > 10 µM | > 10 µM |  | 0 | 0 | 0 |  | 89.4% | 90.5% | 94.5% | 102% | 108% | 0 | > 10 µM
8 | Cc1nnc(NS(=O)(=O)c2ccc(N)cc2)s1 [sulfamethizole] | 96.3% | 98.4% | 96.7% | 99.2% | 105% | 102% | 111% | 98% | 108% | 90.4% | 103% | 98.1% | 103% | 99.2% | 99.2% |  |  |  |  |  | > 10 µM | > 10 µM | > 10 µM |  | 0 | 0 | 0 |  | 88.1% | 85.7% | 98.9% | 93.6% | 99% | 0 | > 10 µM
9 | CC(C)(C)Sc1c(CC(C)(C)C(=O)O)n(Cc2ccc(Cl)cc2)c2ccc(OCc3ccc4ccccc4n3)cc12 [quiflapon] | 91.5% | 97.3% | 98.7% | 102% | 110% | 105% | 95.6% | 96.8% | 98.3% | 104% | 102% | 108% | 104% | 99.6% | 109% |  |  |  |  |  | > 10 µM | > 10 µM | > 10 µM |  | 0 | 0 | 0 |  | 104% | 102% | 97% | 96% | 102% | 0 | > 10 µM
